How the values were obtained:
velvetleaf [1] = assay: Test Example 4: herbicidal effect by soil treatment (Table 19, symbol M); format: in vivo, velvetleaf (Abutilon theophrasti); details: amount of applied herbicide 320 g/ha
Summary of the method: (§1)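 Step 1: sow seeds in sterilized diluvial soil, cover ~1.5 cm. Step 2: spray diluted emulsion onto soil surface at predetermined rate. Step 3: greenhouse, 25–30° C, three weeks. Step 4: grade effect on each plant by earlier criteria.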

Italian ryegrass [2] = assay: Test Example 5: herbicidal effect by foliage application, plastic box (Table 20, symbol K); format: in vivo, Italian ryegrass (Lolium multiflorum); details: foliage application, 320 g/ha, evaluated three weeks after application
Summary of the method: (§2)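 Foliar spray test: emulsion formulation diluted in water to a set application rate, sprayed onto 14-day-old plants raised in diluvial soil at 25° C to 30° C under glass. Both herbicidal effect and crop effect rated visually three weeks later.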

redroot pigweed [3] = assay: Test Example 5: herbicidal effect by foliage application, plastic box (Table 20, symbol N); format: in vivo, redroot pigweed (Amaranthus retroflexus); details: foliage application, 320 g/ha, evaluated three weeks after application
Summary of the method: as §2

windgrass [4] = assay: Test Example 4: herbicidal effect by soil treatment (Table 19, symbol L); format: in vivo, windgrass (Apera spica-venti); details: amount of applied herbicide 320 g/ha
Summary of the method: as §1

false cleavers = assay: Test Example 5: herbicidal effect by foliage application, plastic box (Table 20, symbol Q); format: in vivo, false cleavers (Galium spurium); details: foliage application, 320 g/ha, evaluated three weeks after application
Summary of the method: as §2

lambsquarters [5] = assay: Test Example 4: herbicidal effect by soil treatment (Table 19, symbol O); format: in vivo, lambsquarters (Chenopodium album); details: amount of applied herbicide 320 g/ha
Summary of the method: as §1

barnyard grass [6] = assay: Test Example 5: herbicidal effect by foliage application, plastic box (Table 20, symbol H); format: in vivo, barnyard grass (Echinochloa crus-galli); details: foliage application, 320 g/ha, evaluated three weeks after application
Summary of the method: as §2

windgrass [7] = assay: Test Example 5: herbicidal effect by foliage application, plastic box (Table 20, symbol L); format: in vivo, windgrass (Apera spica-venti); details: foliage application, 320 g/ha, evaluated three weeks after application
Summary of the method: as §2

chickweed [8] = assay: Test Example 4: herbicidal effect by soil treatment (Table 19, symbol P); format: in vivo, common chickweed (Stellaria media); details: amount of applied herbicide 320 g/ha
Summary of the method: as §1

barnyard grass [9] = assay: Test Example 3: herbicidal effect by foliage application, Wagner pot (Table 18, symbol H); format: in vivo, barnyard grass (Echinochloa crus-galli); details: amount of applied herbicide 320 g/ha
Summary of the method: (§3)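 Plants were sown in alluvial soil held under 0.1–0.5 cm standing water and grown 14 days in a greenhouse at 25–30 °C. An emulsifiable formulation, water-diluted to the set dose, was then sprayed onto the foliage, and effects were scored three weeks later using previously defined criteria.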

wild oat [10] = assay: Test Example 4: herbicidal effect by soil treatment (Table 19, symbol I); format: in vivo, wild oat (Avena fatua); details: amount of applied herbicide 320 g/ha
Summary of the method: as §1

southern crabgrass [11] = assay: Test Example 5: herbicidal effect by foliage application, plastic box (Table 20, symbol F); format: in vivo, southern crabgrass (Digitaria ciliaris); details: foliage application, 320 g/ha, evaluated three weeks after application
Summary of the method: as §2

wild oat [12] = assay: Test Example 5: herbicidal effect by foliage application, plastic box (Table 20, symbol I); format: in vivo, wild oat (Avena fatua); details: foliage application, 320 g/ha, evaluated three weeks after application
Summary of the method: as §2

velvetleaf [13] = assay: Test Example 5: herbicidal effect by foliage application, plastic box (Table 20, symbol M); format: in vivo, velvetleaf (Abutilon theophrasti); details: foliage application, 320 g/ha, evaluated three weeks after application
Summary of the method: as §2

persian speedwell [14] = assay: Test Example 5: herbicidal effect by foliage application, plastic box (Table 20, symbol R); format: in vivo, Persian speedwell (Veronica persica); details: foliage application, 320 g/ha, evaluated three weeks after application
Summary of the method: as §2

southern crabgrass [15] = assay: Test Example 4: herbicidal effect by soil treatment (Table 19, symbol F); format: in vivo, southern crabgrass (Digitaria ciliaris); details: amount of applied herbicide 320 g/ha
Summary of the method: as §1

lambsquarters [16] = assay: Test Example 5: herbicidal effect by foliage application, plastic box (Table 20, symbol O); format: in vivo, lambsquarters (Chenopodium album); details: foliage application, 320 g/ha, evaluated three weeks after application
Summary of the method: as §2

green foxtail [17] = assay: Test Example 4: herbicidal effect by soil treatment (Table 19, symbol G); format: in vivo, green foxtail (Setaria viridis); details: amount of applied herbicide 320 g/ha
Summary of the method: as §1

blackgrass [18] = assay: Test Example 5: herbicidal effect by foliage application, plastic box (Table 20, symbol J); format: in vivo, blackgrass (Alopecurus myosuroides); details: foliage application, 320 g/ha, evaluated three weeks after application
Summary of the method: as §2

chickweed [19] = assay: Test Example 5: herbicidal effect by foliage application, plastic box (Table 20, symbol P); format: in vivo, common chickweed (Stellaria media); details: foliage application, 320 g/ha, evaluated three weeks after application
Summary of the method: as §2

green foxtail [20] = assay: Test Example 5: herbicidal effect by foliage application, plastic box (Table 20, symbol G); format: in vivo, green foxtail (Setaria viridis); details: foliage application, 320 g/ha, evaluated three weeks after application
Summary of the method: as §2

redroot pigweed [21] = assay: Test Example 4: herbicidal effect by soil treatment (Table 19, symbol N); format: in vivo, redroot pigweed (Amaranthus retroflexus); details: amount of applied herbicide 320 g/ha
Summary of the method: as §1

Chinese sprangletop = assay: Test Example 3: herbicidal effect by foliage application, Wagner pot (Table 18, symbol D); format: in vivo, chinese sprangletop (Leptochloa chinensis); details: amount of applied herbicide 320 g/ha
Summary of the method: as §3

rice flat sedge = assay: Test Example 3: herbicidal effect by foliage application, Wagner pot (Table 18, symbol E); format: in vivo, rice flat sedge (Cyperus iria); details: amount of applied herbicide 320 g/ha
Summary of the method: as §3

blackgrass [22] = assay: Test Example 4: herbicidal effect by soil treatment (Table 19, symbol J); format: in vivo, blackgrass (Alopecurus myosuroides); details: amount of applied herbicide 320 g/ha
Summary of the method: as §1

barnyard grass [23] = assay: Test Example 4: herbicidal effect by soil treatment (Table 19, symbol H); format: in vivo, barnyard grass (Echinochloa crus-galli); details: amount of applied herbicide 320 g/ha
Summary of the method: as §1

persian speedwell [24] = assay: Test Example 4: herbicidal effect by soil treatment (Table 19, symbol R); format: in vivo, Persian speedwell (Veronica persica); details: amount of applied herbicide 320 g/ha
Summary of the method: as §1

Italian ryegrass [25] = assay: Test Example 4: herbicidal effect by soil treatment (Table 19, symbol K); format: in vivo, Italian ryegrass (Lolium multiflorum); details: amount of applied herbicide 320 g/ha
Summary of the method: as §1

Row | SMILES | M: velvetleaf, herbicidal effect rating (velvetleaf [1]) | L: windgrass, herbicidal effect rating (windgrass [4]) | O: lambsquarters, herbicidal effect rating (lambsquarters [5]) | P: chickweed, herbicidal effect rating (chickweed [8]) | herbicidal effect on H: barnyard grass (barnyard grass [9]) | I: wild oat, herbicidal effect rating (wild oat [10]) | F: southern crabgrass, herbicidal effect rating (southern crabgrass [15]) | G: green foxtail, herbicidal effect rating (green foxtail [17]) | N: redroot pigweed, herbicidal effect rating (redroot pigweed [21]) | herbicidal effect on D: Chinese sprangletop (Chinese sprangletop) | herbicidal effect on E: rice flat sedge (rice flat sedge) | J: blackgrass, herbicidal effect rating (blackgrass [22]) | H: barnyard grass, herbicidal effect rating (barnyard grass [23]) | R: persian speedwell, herbicidal effect rating (persian speedwell [24]) | K: Italian ryegrass, herbicidal effect rating (Italian ryegrass [25]) | other results
1 | COc1ccc(-c2sc3ccc(Cl)cc3c2-c2c(O)c(C)nn(C)c2=O)cc1OC [2-123] | 0 (Herbicidal rate of 5% or less (almost no effect)) | 0 (Herbicidal rate of 5% or less (almost no effect)) | 4 (Herbicidal rate of 70% or more and less than 90%) | 3 (Herbicidal rate of 40% or more and less than 70%) | 3 (Herbicidal rate of 40% or more and less than 70%) | 0 (Herbicidal rate of 5% or less (almost no effect)) | 0 (Herbicidal rate of 5% or less (almost no effect)) | 0 (Herbicidal rate of 5% or less (almost no effect)) | 0 (Herbicidal rate of 5% or less (almost no effect)) | 0 (Herbicidal rate of 5% or less (almost no effect)) | 5 (Herbicidal rate of 90% or more (almost completely withered)) | 0 (Herbicidal rate of 5% or less (almost no effect)) | 0 (Herbicidal rate of 5% or less (almost no effect)) | 4 (Herbicidal rate of 70% or more and less than 90%) | 0 (Herbicidal rate of 5% or less (almost no effect)) | herbicidal effect on K: Italian ryegrass (Italian ryegrass [2]): 2 (Herbicidal rate of 20% or more and less than 40%); herbicidal effect on N: redroot pigweed (redroot pigweed [3]): 0 (Herbicidal rate of 5% or less (almost no effect)); herbicidal effect on Q: false cleavers (false cleavers): 1 (Herbicidal rate of 5% or more and less than 20%); herbicidal effect on H: barnyard grass (barnyard grass [6]): 0 (Herbicidal rate of 5% or less (almost no effect)); herbicidal effect on L: windgrass (windgrass [7]): 1 (Herbicidal rate of 5% or more and less than 20%); herbicidal effect on F: southern crabgrass (southern crabgrass [11]): 0 (Herbicidal rate of 5% or less (almost no effect)); herbicidal effect on I: wild oat (wild oat [12]): 0 (Herbicidal rate of 5% or less (almost no effect)); herbicidal effect on M: velvetleaf (velvetleaf [13]): 3 (Herbicidal rate of 40% or more and less than 70%); herbicidal effect on R: persian speedwell (persian speedwell [14]): 5 (Herbicidal rate of 90% or more (almost completely withered)); herbicidal effect on O: lambsquarters (lambsquarters [16]): 2 (Herbicidal rate of 20% or more and less than 40%); herbicidal effect on J: blackgrass (blackgrass [18]): 4 (Herbicidal rate of 70% or more and less than 90%); herbicidal effect on P: chickweed (chickweed [19]): 5 (Herbicidal rate of 90% or more (almost completely withered)); herbicidal effect on G: green foxtail (green foxtail [20]): 0 (Herbicidal rate of 5% or less (almost no effect))
2 | CCCOc1cccc(-c2sc3ccc(F)cc3c2-c2c(OC(=O)CCC)c(C)nn(C)c2=O)c1 [2-214] | 3 (Herbicidal rate of 40% or more and less than 70%) | 0 (Herbicidal rate of 5% or less (almost no effect)) | 2 (Herbicidal rate of 20% or more and less than 40%) | 3 (Herbicidal rate of 40% or more and less than 70%) | 3 (Herbicidal rate of 40% or more and less than 70%) | 0 (Herbicidal rate of 5% or less (almost no effect)) | 4 (Herbicidal rate of 70% or more and less than 90%) | 4 (Herbicidal rate of 70% or more and less than 90%) | 5 (Herbicidal rate of 90% or more (almost completely withered)) | 3 (Herbicidal rate of 40% or more and less than 70%) | 4 (Herbicidal rate of 70% or more and less than 90%) | 0 (Herbicidal rate of 5% or less (almost no effect)) | 3 (Herbicidal rate of 40% or more and less than 70%) | 5 (Herbicidal rate of 90% or more (almost completely withered)) | 0 (Herbicidal rate of 5% or less (almost no effect)) | herbicidal effect on K: Italian ryegrass (criteria 0-5) (Italian ryegrass [2]): 1 (Herbicidal rate of 5% or more and less than 20%); herbicidal effect on N: redroot pigweed (criteria 0-5) (redroot pigweed [3]): 4 (Herbicidal rate of 70% or more and less than 90%); herbicidal effect on Q: false cleavers (criteria 0-5) (false cleavers): 2 (Herbicidal rate of 20% or more and less than 40%); herbicidal effect on H: barnyard grass (criteria 0-5) (barnyard grass [6]): 1 (Herbicidal rate of 5% or more and less than 20%); herbicidal effect on L: windgrass (criteria 0-5) (windgrass [7]): 0 (Herbicidal rate of 5% or less (almost no effect)); herbicidal effect on F: southern crabgrass (criteria 0-5) (southern crabgrass [11]): 4 (Herbicidal rate of 70% or more and less than 90%); herbicidal effect on I: wild oat (criteria 0-5) (wild oat [12]): 0 (Herbicidal rate of 5% or less (almost no effect)); herbicidal effect on M: velvetleaf (criteria 0-5) (velvetleaf [13]): 3 (Herbicidal rate of 40% or more and less than 70%); herbicidal effect on R: persian speedwell (criteria 0-5) (persian speedwell [14]): 5 (Herbicidal rate of 90% or more (almost completely withered)); herbicidal effect on O: lambsquarters (criteria 0-5) (lambsquarters [16]): 2 (Herbicidal rate of 20% or more and less than 40%); herbicidal effect on J: blackgrass (criteria 0-5) (blackgrass [18]): 0 (Herbicidal rate of 5% or less (almost no effect)); herbicidal effect on P: chickweed (criteria 0-5) (chickweed [19]): 5 (Herbicidal rate of 90% or more (almost completely withered)); herbicidal effect on G: green foxtail (criteria 0-5) (green foxtail [20]): 4 (Herbicidal rate of 70% or more and less than 90%)

Reference: US20230085307A1, “PYRIDAZINONE COMPOUND AND HERBICIDE” (NISSAN CHEMICAL CORPORATION, priority 2019, published 2023)
